Source: ChEMBL document CHEMBL1201862, “PubChem BioAssay data set” (2004)
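Exposure lasted 48 hours, with cells grown in 96-well plates and compounds tested at five concentrations. GI50: concentration for 50% inhibition of growth.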 Calls of active or inactive are those of the source. Rule as the data show it: active = GI50 up to about 1.1 µM and inactive = higher.

What was measured:
Assay in all cases: NCI-60 cell line screen, 48 h
NCI-H23 = system: NCI-H23
ACHN = system: ACHN
SK-MEL-28 = system: SK-MEL-28
M14 = system: M14
RXF 393 = system: RXF 393
OVCAR-4 = system: OVCAR-4
A498 = system: A498
DU-145 = system: DU-145
MCF7 = system: MCF7
NCI/ADR-RES = system: NCI/ADR-RES
LOX IMVI = system: LOX IMVI
A549 = system: A549
SW-620 = system: SW-620
NCI-H226 = system: NCI-H226
HOP-62 = system: HOP-62
SF-295 = system: SF-295
SR = system: SR
HT-29 = system: HT-29
UACC-257 = system: UACC-257
UACC-62 = system: UACC-62
SK-MEL-2 = system: SK-MEL-2
IGROV-1 = system: IGROV-1
CAKI-1 = system: CAKI-1
BT-549 = system: BT-549
OVCAR-3 = system: OVCAR-3
CCRF-CEM = system: CCRF-CEM
HCT-15 = system: HCT-15
PC-3 = system: PC-3
SNB-75 = system: SNB-75
KM12 = system: KM12
COLO 205 = system: COLO 205
HOP-92 = system: HOP-92
UO-31 = system: UO-31
NCI-H460 = system: NCI-H460
HL-60 = system: HL-60
SNB-19 = system: SNB-19
MOLT-4 = system: MOLT-4
RPMI-8226 = system: RPMI-8226
Malme-3M = system: Malme-3M
HCC 2998 = system: HCC 2998
SK-MEL-5 = system: SK-MEL-5
Hs-578T = system: Hs-578T
K562 = system: K562
OVCAR-5 = system: OVCAR-5
T47D = system: T47D
U-251 = system: U-251
TK-10 = system: TK-10
MDA-MB-435 = system: MDA-MB-435
OVCAR-8 = system: OVCAR-8
786-0 = system: 786-0
SF-268 = system: SF-268
SF-539 = system: SF-539
EKVX = system: EKVX
NCI-H522 = system: NCI-H522
HCT-116 = system: HCT-116
MDA-MB-231 = system: MDA-MB-231
MDA-N = system: MDA-N
SN12C = system: SN12C
SK-OV-3 = system: SK-OV-3

`O=C(O)c1nc2ccccc2nc1Nc1ccc(F)cc1` was tested, and the GI50 (NCI-H23) was 34 µM (inactive), the GI50 (ACHN) was 26.9 µM (inactive) and the GI50 (SK-MEL-28) was 36.4 µM (inactive). The GI50 (M14) was 25.5 µM (inactive), the GI50 (RXF 393) was 14.5 µM (inactive) and the GI50 (OVCAR-4) was 41.8 µM (inactive). For the same compound, the GI50 (A498) was 40 µM (inactive), the GI50 (DU-145) was 33.7 µM (inactive) and the GI50 (MCF7) was 29.9 µM (inactive). The GI50 (NCI/ADR-RES) was 36.8 µM (inactive), the GI50 (LOX IMVI) was 34.1 µM (inactive) and the GI50 (A549) was 33.4 µM (inactive). The GI50 (SW-620) was 38.5 µM (inactive), the GI50 (NCI-H226) was 23.7 µM (inactive) and the GI50 (HOP-62) was 30.4 µM (inactive). For the same compound, the GI50 (SF-295) was 24 µM (inactive), the GI50 (SR) was 32.7 µM (inactive) and the GI50 (HT-29) was 42.1 µM (inactive). For the same compound, the GI50 (UACC-257) was 29.6 µM (inactive), the GI50 (UACC-62) was 27.2 µM (inactive) and the GI50 (SK-MEL-2) was 26.9 µM (inactive). For the same compound, the GI50 (IGROV-1) was 37.4 µM (inactive), the GI50 (CAKI-1) was 20.9 µM (inactive) and the GI50 (BT-549) was 44.3 µM (inactive). For the same compound, the GI50 (OVCAR-3) was 15.3 µM (inactive), the GI50 (CCRF-CEM) was 29.8 µM (inactive) and the GI50 (HCT-15) was 26.7 µM. The GI50 (PC-3) was 27.9 µM (inactive), the GI50 (SNB-75) was 24.8 µM (inactive) and the GI50 (KM12) was 41.6 µM (inactive). For the same compound, the GI50 (COLO 205) was 29.5 µM (inactive), the GI50 (HOP-92) was 27.1 µM (inactive) and the GI50 (UO-31) was 43 µM (inactive). The GI50 (NCI-H460) was 34 µM (inactive), the GI50 (HL-60) was 25.7 µM (inactive) and the GI50 (SNB-19) was 30.8 µM (inactive). For the same compound, the GI50 (MOLT-4) was 28.3 µM (inactive), the GI50 (RPMI-8226) was 23.1 µM (inactive) and the GI50 (Malme-3M) was 37.9 µM (inactive). The GI50 (HCC 2998) was 32.1 µM (inactive), the GI50 (SK-MEL-5) was 21.6 µM (inactive) and the GI50 (Hs-578T) was 29.2 µM (inactive). The GI50 (K562) was 32.1 µM (inactive), the GI50 (OVCAR-5) was 56.4 µM (inactive) and the GI50 (T47D) was 28.4 µM (inactive). For the same compound, the GI50 (U-251) was 37.7 µM (inactive), the GI50 (TK-10) was 34.5 µM (inactive) and the GI50 (MDA-MB-435) was 34.8 µM (inactive). The GI50 (OVCAR-8) was 38.9 µM (inactive), the GI50 (786-0) was 40.9 µM (inactive) and the GI50 (SF-268) was 22.9 µM (inactive). The GI50 (SF-539) was 23.5 µM (inactive), the GI50 (EKVX) was 36.4 µM (inactive) and the GI50 (NCI-H522) was 25.1 µM (inactive). The GI50 (HCT-116) was 30.8 µM (inactive).

With `O=C(O)c1ccc(Nc2nc3ccc(C(F)(F)F)cc3nc2C(=O)O)cc1` the GI50 (NCI-H23) was > 100 µM (inactive), the GI50 (ACHN) was > 100 µM (inactive) and the GI50 (SK-MEL-28) was > 100 µM (inactive). For the same compound, the GI50 (M14) was > 100 µM (inactive), the GI50 (RXF 393) was > 100 µM (inactive) and the GI50 (OVCAR-4) was > 100 µM (inactive). The GI50 (DU-145) was > 100 µM (inactive), the GI50 (MCF7) was > 100 µM (inactive) and the GI50 (MDA-MB-231) was > 100 µM (inactive). The GI50 (NCI/ADR-RES) was > 100 µM (inactive), the GI50 (LOX IMVI) was > 100 µM (inactive) and the GI50 (A549) was > 100 µM (inactive). The GI50 (SW-620) was > 100 µM (inactive), the GI50 (NCI-H226) was > 100 µM (inactive) and the GI50 (HOP-62) was > 100 µM (inactive). The GI50 (SF-295) was > 100 µM (inactive), the GI50 (SR) was > 100 µM (inactive) and the GI50 (HT-29) was > 100 µM (inactive). The GI50 (UACC-257) was > 100 µM (inactive), the GI50 (UACC-62) was > 100 µM (inactive) and the GI50 (SK-MEL-2) was > 100 µM (inactive). For the same compound, the GI50 (IGROV-1) was > 100 µM (inactive), the GI50 (MDA-N) was > 100 µM (inactive) and the GI50 (CAKI-1) was > 100 µM (inactive). For the same compound, the GI50 (OVCAR-3) was > 100 µM (inactive), the GI50 (SN12C) was > 100 µM (inactive) and the GI50 (CCRF-CEM) was > 100 µM (inactive). The GI50 (HCT-15) was > 100 µM, the GI50 (PC-3) was > 100 µM (inactive) and the GI50 (SNB-75) was > 100 µM (inactive). For the same compound, the GI50 (KM12) was > 100 µM (inactive), the GI50 (COLO 205) was > 100 µM (inactive) and the GI50 (HOP-92) was > 100 µM (inactive). For the same compound, the GI50 (UO-31) was > 100 µM (inactive), the GI50 (NCI-H460) was > 100 µM (inactive) and the GI50 (HL-60) was > 100 µM (inactive). The GI50 (SNB-19) was > 100 µM (inactive), the GI50 (MOLT-4) was > 100 µM (inactive) and the GI50 (RPMI-8226) was > 100 µM (inactive). For the same compound, the GI50 (Malme-3M) was > 100 µM (inactive), the GI50 (HCC 2998) was > 100 µM (inactive) and the GI50 (SK-MEL-5) was > 100 µM (inactive). The GI50 (Hs-578T) was > 100 µM (inactive), the GI50 (K562) was > 100 µM (inactive) and the GI50 (OVCAR-5) was > 100 µM (inactive). The GI50 (T47D) was > 100 µM (inactive), the GI50 (U-251) was > 100 µM (inactive) and the GI50 (TK-10) was > 100 µM (inactive). For the same compound, the GI50 (MDA-MB-435) was > 100 µM (inactive), the GI50 (OVCAR-8) was > 100 µM (inactive) and the GI50 (786-0) was > 100 µM (inactive). For the same compound, the GI50 (SF-268) was > 100 µM (inactive), the GI50 (SF-539) was > 100 µM (inactive) and the GI50 (EKVX) was > 100 µM (inactive). The GI50 (NCI-H522) was > 100 µM (inactive), the GI50 (SK-OV-3) was > 100 µM (inactive) and the GI50 (HCT-116) was > 100 µM (inactive).
